Publication PMC6151521, “Characterization of the Ornithine Hydroxylation Step in Albachelin Biosynthesis” (Molecules : A Journal of Synthetic Chemistry and Natural …, 2017)

System: T1, albachelin monooxygenase (AMO)
T1 construct: expressed in E. coli (pVP56K) as 8xHis-MBP fusion, tag removed with TEV protease; MW 49 kDa
Assay: oxygen consumption (Oxygraph)
Assay type: biochemical, Amycolatopsis alba
Conditions: holo-AMO, 100 mM sodium phosphate pH 7.5
Source text: oxygen consumption (Oxygraph) on albachelin monooxygenase (AMO)

Row | Km (5 mM NADPH) | Km (10 mM Orn) | Compound
1 | 305 ± 108 µM |  | NCCC[C@H](N)C(=O)O [Orn]
2 |  | 320 ± 100 µM | NC(=O)C1=CN([C@@H]2O[C@H](COP(=O)(O)OP(=O)(O)OC[C@H]3O[C@@H](n4cnc5c(N)ncnc54)[C@H](O)[C@@H]3O)[C@@H](O)[C@H]2O)C=CC1 [NADH]
3 |  | 1400 ± 160 µM | NC(=O)C1=CN([C@@H]2O[C@H](COP(=O)(O)OP(=O)(O)OC[C@H]3O[C@@H](n4cnc5c(N)ncnc54)[C@H](OP(=O)(O)O)[C@@H]3O)[C@@H](O)[C@H]2O)C=CC1 [NADPH]
